# Experimental data as given in ChEMBL document CHEMBL4828769, “Discovery of AS-0141, a Potent and Selective Inhibitor of CDC7 Kinase for the Treatment of Solid Cancers” (J Med Chem, 2021).
# pIC50: −log10 of the molar value. Calls of active or inactive are those of the source. The calls are words filed in the database; no cut-off is given here.
# What was measured:
# [1] = Volume of distribution in mouse at 1 mg/kg, iv; assay type: ADME, organism-based; details: in vivo
# [2] = AUC(0 to infinity) in rat at 2 mg/kg, iv; assay type: ADME, organism-based; parameters: route intravenous, time infinity, dose 2 mg/kg; details: in vivo
# SW-620 [3] = test: Induction of apoptosis in human SW-620 cells assessed as increase in gamma-H2AX level incubated for 48 hrs by Western blot analysis; assay type: functional, cell-based; details: dose 0.03-1 µM
# [4] = biological target: Serine/threonine-protein kinase pim-1 (Homo sapiens, UniProt P11309); test: Inhibition of PIM1 (unknown origin) at 0.1 uM in presence of 1 mM ATP relative to control
# [5] = biological target: Glycogen synthase kinase-3 alpha (Homo sapiens, UniProt P49840); test: Inhibition of GSK3alpha (unknown origin) in presence of 1 mM ATP with preincubation
# SW-620 [6] = test: Induction of apoptosis in human SW-620 cells assessed as increase in cleaved caspase 3 level incubated for 48 hrs by Western blot analysis; assay type: functional, cell-based; details: dose 0.03-1 µM
# [7] = Clearance in mouse at 1 mg/kg, iv; assay type: ADME, organism-based; details: in vivo
# [8] = Tmax in dog at 2 mg/kg, po; assay type: ADME, organism-based, Canis lupus familiaris; details: in vivo
# COLO 205 = test: Induction of cell cycle arrest in human COLO205 cells assessed as accumulation of cells at sub-G1 phase at 1 uM incubated for 48 hrs by propidium iodide staining based flow cytometry analysis; assay type: functional
# [9] = Apparent permeability across apical to basolateral side in human Caco-2 cells; assay type: ADME, cell-based
# [10] = biological target: T1, Dual specificity protein kinase CLK1 (Homo sapiens, UniProt P49759); test: Inhibition of CLK1 (unknown origin) in presence of 1 mM ATP with preincubation
# [11] = Cmax in dog at 1 mg/kg, iv; assay type: ADME, organism-based, Canis lupus familiaris; parameters: route intravenous, dose 1 mg/kg; details: in vivo
# [12] = Metabolic stability in dog liver microsomes assessed as parent compound remaining after 30 mins; assay type: ADME, Canis lupus familiaris, Microsome; details: read-out: Stability
# [13] = MRT in mouse at 1 mg/kg, iv; assay type: ADME, organism-based; details: in vivo
# [14] = Metabolic stability in rat liver microsomes assessed as parent compound remaining after 30 mins; assay type: ADME, Microsome; details: read-out: Stability
# [15] = biological target: T1, Dual specificity protein kinase CLK1; test: Inhibition of CLK1 (unknown origin) in presence of 1 mM ATP without preincubation
# [16] = biological target: T2, Cell division cycle 7-related protein kinase (Homo sapiens, UniProt O00311); test: Inhibition of CDC7 in human COLO205 cells assessed as reduction in MCM2 phosphorylation at S53 residue at 0.1 uM incubated for 48 hrs by Western blot analysis relative to control; assay type: cell-based; details: COLO 205
# [17] = Volume of distribution in dog at 1 mg/kg, iv; assay type: ADME, organism-based, Canis lupus familiaris; details: in vivo
# [18] = biological target: T3, Dual specificity protein kinase CLK2 (Homo sapiens, UniProt P49760); test: Inhibition of CLK2 (unknown origin) at 0.1 uM in presence of 1 mM ATP relative to control
# Target sequence in this assay (P49760 whole entry, looked up): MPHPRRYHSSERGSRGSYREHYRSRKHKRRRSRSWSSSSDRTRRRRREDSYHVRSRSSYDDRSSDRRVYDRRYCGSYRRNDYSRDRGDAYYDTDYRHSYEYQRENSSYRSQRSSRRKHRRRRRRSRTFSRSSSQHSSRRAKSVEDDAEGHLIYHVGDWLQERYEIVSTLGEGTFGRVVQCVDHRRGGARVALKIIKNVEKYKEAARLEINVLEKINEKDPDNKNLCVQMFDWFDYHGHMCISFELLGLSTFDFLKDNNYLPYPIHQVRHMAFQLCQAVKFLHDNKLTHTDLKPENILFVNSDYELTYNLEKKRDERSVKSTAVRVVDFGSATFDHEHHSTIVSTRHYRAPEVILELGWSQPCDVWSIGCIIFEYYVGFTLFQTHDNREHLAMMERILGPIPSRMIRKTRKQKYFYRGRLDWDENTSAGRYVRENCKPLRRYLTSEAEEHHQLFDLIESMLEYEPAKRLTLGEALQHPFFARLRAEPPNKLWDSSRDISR
# [19] = biological target: T2, Cell division cycle 7-related protein kinase; test: Inhibition of CDC7 in human COLO 205 cells assessed as reduction in phosphorylation of MCM2 at 1 uM preincubated for 48 hrs followed by compound washout measured after 24 hrs by Western blot analysis; assay type: cell-based
# [20] = biological target: T2, Cell division cycle 7-related protein kinase; test: Inhibition of CDC7 in human SW-620 cells assessed as reduction in phosphorylation of MCM2 at Ser41 residue at 0.03 to 1 uM incubated for 48 hrs by Western blot analysis; assay type: cell-based; details: dose 0.03-1 µM
# [21] = Oral bioavailability in dog at 2 mg/kg; assay type: ADME, organism-based, Canis lupus familiaris; details: in vivo
# [22] = biological target: T3, Dual specificity protein kinase CLK2; test: Inhibition of CLK2 (unknown origin) in presence of 1 mM ATP without preincubation
# Target sequence in this assay (P49760 whole entry): as the sequence (P49760 whole entry, looked up) above
# T2 sequence (O00311 whole entry, looked up): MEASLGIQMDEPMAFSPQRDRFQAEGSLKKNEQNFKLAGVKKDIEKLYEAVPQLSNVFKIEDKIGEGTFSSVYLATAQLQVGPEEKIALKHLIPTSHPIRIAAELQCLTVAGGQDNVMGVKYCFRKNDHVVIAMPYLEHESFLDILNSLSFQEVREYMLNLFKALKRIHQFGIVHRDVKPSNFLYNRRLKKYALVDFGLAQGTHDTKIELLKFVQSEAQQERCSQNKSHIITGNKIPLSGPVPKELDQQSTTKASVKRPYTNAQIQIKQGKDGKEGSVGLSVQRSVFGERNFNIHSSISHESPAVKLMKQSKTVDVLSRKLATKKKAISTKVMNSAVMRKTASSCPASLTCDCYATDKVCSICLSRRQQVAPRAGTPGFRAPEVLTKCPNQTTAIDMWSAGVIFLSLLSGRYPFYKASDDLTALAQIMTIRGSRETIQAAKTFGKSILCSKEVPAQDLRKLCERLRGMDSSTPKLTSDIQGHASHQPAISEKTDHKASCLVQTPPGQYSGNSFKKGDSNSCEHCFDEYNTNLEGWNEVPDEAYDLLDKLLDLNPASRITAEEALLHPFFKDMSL
# T1 sequence (P49759 whole entry): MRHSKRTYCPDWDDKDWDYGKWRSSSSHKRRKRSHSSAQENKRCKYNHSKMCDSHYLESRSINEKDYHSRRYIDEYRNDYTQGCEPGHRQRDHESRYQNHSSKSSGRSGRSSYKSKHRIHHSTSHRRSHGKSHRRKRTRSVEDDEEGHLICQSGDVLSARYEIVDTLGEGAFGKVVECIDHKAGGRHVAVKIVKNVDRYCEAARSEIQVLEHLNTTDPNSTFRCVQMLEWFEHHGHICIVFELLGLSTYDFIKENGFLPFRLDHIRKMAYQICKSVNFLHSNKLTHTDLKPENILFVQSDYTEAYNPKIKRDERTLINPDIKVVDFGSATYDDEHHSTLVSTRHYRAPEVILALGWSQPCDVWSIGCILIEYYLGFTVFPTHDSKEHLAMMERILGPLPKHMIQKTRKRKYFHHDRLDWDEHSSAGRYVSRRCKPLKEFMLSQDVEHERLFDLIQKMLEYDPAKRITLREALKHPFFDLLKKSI
# Sequence of Glycogen synthase kinase-3 alpha (P49840 whole entry): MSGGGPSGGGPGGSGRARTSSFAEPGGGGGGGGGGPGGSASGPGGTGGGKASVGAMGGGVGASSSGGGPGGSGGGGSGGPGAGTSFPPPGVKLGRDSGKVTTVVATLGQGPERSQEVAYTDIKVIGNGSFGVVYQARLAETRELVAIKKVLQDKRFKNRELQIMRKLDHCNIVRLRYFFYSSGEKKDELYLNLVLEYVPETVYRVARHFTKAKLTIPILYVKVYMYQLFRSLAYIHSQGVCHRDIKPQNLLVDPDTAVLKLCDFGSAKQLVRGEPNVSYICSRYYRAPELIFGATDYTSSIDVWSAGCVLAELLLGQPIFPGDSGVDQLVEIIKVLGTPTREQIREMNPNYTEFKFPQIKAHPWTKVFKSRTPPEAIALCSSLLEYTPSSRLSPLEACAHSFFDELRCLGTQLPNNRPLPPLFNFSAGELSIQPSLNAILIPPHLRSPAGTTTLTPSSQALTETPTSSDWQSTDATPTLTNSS
# Sequence of Serine/threonine-protein kinase pim-1 (P11309 whole entry, looked up): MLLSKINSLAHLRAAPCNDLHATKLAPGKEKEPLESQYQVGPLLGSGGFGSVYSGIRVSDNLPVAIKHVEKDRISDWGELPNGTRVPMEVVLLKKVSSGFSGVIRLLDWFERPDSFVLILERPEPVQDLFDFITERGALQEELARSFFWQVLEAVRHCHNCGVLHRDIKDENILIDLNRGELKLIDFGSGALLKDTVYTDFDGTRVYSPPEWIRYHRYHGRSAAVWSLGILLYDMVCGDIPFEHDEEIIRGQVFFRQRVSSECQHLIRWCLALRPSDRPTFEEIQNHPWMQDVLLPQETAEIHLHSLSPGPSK
smiles,measurement,setting,value
CCOC(=O)C1=C(NN2CCN(CC(F)(F)F)CC2)O/C(=C\c2c[nH]c3ncccc23)C1=O [MONZOSERTIB],Vd,[1],3.1 L/kg
same,AUC(0-inf),[2],887 ng·h/mL
same,Activity,SW-620 [3],Dose-Dependent Effect
same,inhibition,[4],> 30%
same,pIC50,[5],6.60
same,Activity,SW-620 [6],Dose-Dependent Effect
same,clearance,[7],112 mL/min/kg
same,Tmax,[8],2.67 h
same,Activity,COLO 205,51%
same,Papp A→B,[9],24.9 ×10⁻⁶ cm/s
same,pIC50,[10],6.69
same,Cmax,[11],298 ng/mL
same,remaining at 0.5 h,[12],81%
same,MRT,[13],0.3 h
same,remaining at 0.5 h,[14],34.9%
same,pIC50,[15],6.67
same,inhibition,[16],100%
same,Vd,[17],4.22 L/kg
same,inhibition,[18],> 30%
same,inhibition,[19],Active
same,inhibition,[20],inactive
same,bioavailability,[21],33.3%
same,pIC50,[22],6.57
